In one assay the test system is LEFCH. Kind of assay: Postemergence foliar-applied weed control, direct seeded rice, greenhouse (Example I). In kind it is in vivo, Leptochloa chinensis (L.) Nees. The settings on record: g ae/ha Compound A Benzyl Ester+g ai/ha saflufenacil: r26 8.75+0, r27 17.5+0, r28 0+5, r29 0+10, r30 8.75+5, r31 17.5+5, r32 8.75+10, r33 17.5+10.
In the next assay the test system is CYPIR. The assay is described as above. It counts as in vivo, Cyperus iria L.
The subject of another assay is ECHCO. The assay is described as above. In kind it is in vivo, Echinochloa colona (L.) Link.
The next assay relates to CYPRO. Kind of assay: In-water applied weed control, transplanted paddy rice, greenhouse (Example II). In kind it is in vivo, Cyperus rotundus L.
The test system of a further assay is PAPRH. Kind of assay: Postemergence foliar herbicidal activity of mixtures in cereal crops, greenhouse (Example III). In kind it is in vivo, Papaver rhoeas L. The settings on record: foliar-applied. The procedure: Seeds of the desired test plant species were planted in Sun Gro MetroMix® 306 planting mixture, which typically has a pH of 6.0 to 6.8 and an organic matter content of about 30 percent, in plastic pots with a surface area of 103.2 square centimeters (cm^2). When required to ensure good germination and healthy plants, a fungicide treatment and/or other chemical or physical treatment was applied. The plants were grown for 7-36 days in a greenhouse with an approximate 14 hour photoperiod which was maintained at about 18° C. during the day and about 17° C. during the night. Nutrients and water were added on a regular basis and supplemental lighting was provided with overhead metal halide 1000-Watt lamps as necessary. The plants were employed for testing when they reached the second or third true leaf stage.
Treatments consisted of the benzyl ester of 4-amino-3-chloro-5-fluoro-6-(4-chloro-2-fluoro-3-methoxy-phenyl)pyridine-2-carboxylic acid (Compound A), formulated as an SC, a second cereal herbicide alone and then both in combination.
Other herbicidal components were applied on an active ingredient basis and included PSII-inhibiting herbicides.
Measured aliquots of benzyl ester of 4-amino-3-chloro-5-fluoro-6-(4-chloro-2-fluoro-3-methoxy-phenyl)pyridine-2-carboxylic acid (Compound A) were placed in 25 milliliter (mL) glass vials and diluted in a volume of 1.25% (v/v) Agri-Dex® crop oil concentrate to obtain stock solutions. Compound requirements are based upon a 12 mL application volume at a rate of 187 liters per hectare (L/ha). Spray solutions of the second cereal herbicide and experimental compound mixtures were prepared by adding the stock solutions to the appropriate amount of dilution solution to form 12 mL spray solution with active ingredients in two- and three-way combinations. Formulated compounds were applied to the plant material with an overhead Mandel track sprayer equipped with an 8002E nozzle calibrated to deliver 187 L/ha over an application area of 0.503 square meters (m^2) at a spray height of 18 inches (46 cm) above average plant canopy. Control plants were sprayed in the same manner with the solvent blank.
The treated plants and control plants were placed in a greenhouse as described above and watered by sub-irrigation to prevent wash-off of the test compounds. After 20-22 days, the condition of the test plants as compared with that of the control plants was determined visually and scored on a scale of 0 to 100 percent where 0 corresponds to no injury and 100 corresponds to complete kill.
Colby's equation was used to determine the herbicidal effects expected from the mixtures (Colby, S. R. 1967. Calculation of the synergistic and antagonistic response of herbicide combinations. Weeds 15:20-22.).
The following equation was used to calculate the expected activity of mixtures containing two active ingredients, A and B: Expected=A+B−(A×B/100)

The next assay concerns SETVI. Kind of assay: Pre-emergence soil-applied weed control, greenhouse (Example IV). It counts as in vivo, Setaria viridis (L.) Beauv. From the text:
Seeds or nutlets of the desired test plant species were planted in a soil matrix prepared by mixing a loam soil (32 percent silt, 23 percent clay, and 45 percent sand, with a pH of about 6.5 and an organic matter content of about 1.9 percent) and calcareous grit in an 80 to 20 ratio. The soil matrix was contained in plastic pots with a volume of 1 quart and a surface area of 83.6 square centimeters (cm^2).
Treatments consisted of the benzyl ester of 4-amino-3-chloro-5-fluoro-6-(4-chloro-2-fluoro-3-methoxy-phenyl)pyridine-2-carboxylic acid (compound A) formulated as an SC (suspension concentrate) and various herbicidal components alone and in combination. Forms of compound A were applied on an acid equivalent basis.
Other herbicidal components were applied on an acid equivalent or active ingredient basis and included the protoporphyrinogen oxidase (PPO)-inhibiting herbicides, flumioxazin formulated as Payload® and oxadiazon formulated as Ronstar® 50W.
Treatment requirements were calculated based upon the rates being tested, the concentration of active ingredient or acid equivalent in the formulation, and a 12 mL application volume at a rate of 187 L/ha.
For treatments comprised of formulated compounds, measured amounts of compounds were placed individually in 25 mL glass vials and diluted in a volume of 1.25% (v/v) Agri-Dex® crop oil concentrate (COC) to obtain 12× stock solutions. […] Application solutions were prepared by adding an appropriate amount of each stock solution (e.g., 1 mL) and diluted to the appropriate final concentrations with the addition of 10 mL of an aqueous mixture of 1.25% (v/v) COC so that the final spray solutions contained 1.25% (v/v) COC. […]
The treated and control pots were placed in a greenhouse and top watered as needed. […] After approximately 4 weeks, the condition of the test plants as compared with that of the untreated plants was determined visually and scored on a scale of 0 to 100 percent where 0 corresponds to no injury or growth inhibition and 100 corresponds to complete kill. […]

These results are taken from patent US8916499B2, “Herbicidal compositions comprising 4-amino-3-chloro-5-fluoro-6-(4-chloro-2-fluoro-3-methoxyphenyl) pyridine-2-carboxylic acid or a derivative thereof and a protoporphyrinogen oxidase inhibitor” (Dow AgroSciences LLC, priority 2012, dated 2014).

Several values for one entry are separate records, joined by “and”; a condition that tells them apart may be missing. Equal entries are not always repeated.

For the compound `COc1c(Cl)ccc(-c2nc(C(=O)OCc3ccccc3)c(Cl)c(N)c2F)c1F` [Compound A Benzyl Ester, benzyl ester of 4-amino-3-chloro-5-fluoro-6-(4-chloro-2-fluoro-3-methoxy-phenyl)pyridine-2-carboxylic acid], the “Visual Weed Control (%) - 20 DAA LEFCH Obs” value in the assay with LEFCH was 30% and 50%. For the same compound, the “Visual Weed Control (%) - 21 DAA CYPIR Obs” value is listed as 30% in the assay on CYPIR (g ae/ha Compound A Benzyl Ester+g ai/ha bifenox (Fox ®): r17 8+0, r18 0+180, r19 0+360, r20 0+720, r21 8+180, r22 8+360, r23 8+720); 85% with CYPIR (g ae/ha Compound A Benzyl Ester+g ai/ha carfentrazone-ethyl: r11 8.75+0, r12 0+3.5, r13 0+7, r14 0+14, r15 8.75+3.5, r16 8.75+7, r17 8.75+14); 30% in the assay on CYPIR (g ae/ha Compound A Benzyl Ester+g ai/ha oxyfluorfen (technical): r27 4.38+0, r28 0+90, r29 0+180, r30 0+360, r31 4.38+90, r32 4.38+180, r33 4.38+360); 35% in the assay on CYPIR (g ae/ha Compound A Benzyl Ester+g ai/ha pyraflufen-ethyl: r17 8+0, r18 0+2.65, r19 0+5.3, r20 0+10.6, r21 8+2.65, r22 8+5.3, r23 8+10.6). The “Visual Weed Control (%) - 20 DAA CYPIR Obs” value in the assay with CYPIR (g ae/ha Compound A Benzyl Ester+g ai/ha saflufenacil: r38 4.38+0, r39 0+5, r40 0+10, r41 0+20, r42 4.38+5, r43 4.38+10, r44 4.38+20) amounted to 70%. Besides, the “Visual Weed Control (%) - 21 DAA ECHCO Obs” value in the assay with ECHCO (g ae/ha Compound A Benzyl Ester+g ai/ha acifluorfen sodium: r11 8+0, r12 0+140, r13 0+280, r14 8+140, r15 8+280) was determined as 40%. Besides, the “Visual Weed Control (%) - 20 DAA ECHCO Obs” value with ECHCO (g ae/ha Compound A Benzyl Ester+g ai/ha pyraclonil: r15 4.38+0, r16 0+33.75, r17 0+67.5, r18 0+135, r19 4.38+33.75, r20 4.38+67.5, r21 4.38+135) is 40%; in the assay with ECHCO (g ae/ha Compound A Benzyl Ester+g ai/ha saflufenacil: r14 4.38+0, r15 8.75+0, r16 0+10, r17 0+20, r18 4.38+10, r19 8.75+10, r20 4.38+20, r21 8.75+20) it was 60% and 80%. In addition, the “Visual Weed Control (%) - 21 DAA CYPRO Obs” value in the assay on CYPRO (4.38 g ae/ha alone) is given as 30%; with CYPRO (8.75 g ae/ha alone) it was 60%; with CYPRO (g ae/ha Compound A Benzyl Ester+g ai/ha oxyfluorfen (SC): r11 32+0, r12 0+135, r13 0+270, r14 32+135, r15 32+270) it was 90%. For the same compound, the “Visual Weed Control (%) - 20 DAA CYPRO Obs” value in the assay on CYPRO (g ae/ha Compound A Benzyl Ester+g ai/ha pyraclonil: r19 4.38+0, r20 8.75+0, r21 0+45, r22 0+90, r23 4.38+45, r24 8.75+45, r25 4.38+90, r26 8.75+90) was 20%. In addition, the “Visual Weed Control (%) - 21 DAA PAPRH Obs” value in the assay on PAPRH (5 g ai/ha alone) was 28%; with PAPRH (10 g ai/ha alone) it was 35%. Besides, the “Visual Weed Control (%) - 28 DAA SETVI Obs” value with SETVI (16 g ae/ha alone) and in the assay on SETVI (32 g ae/ha alone) was 10% in each case.
